The values below come from US10085974B2, “Dosage and formulation” (Almirall, S.A., priority 2008, dated 2018).

For series [1], the system named is Patients with moderate to severe stable COPD. Briefly: Tolerability (ECG, laboratory parameters, adverse events) in the 4-week COPD trial. Type of series: in vivo, human. The note with it: aclidinium 25-400 μg once daily, 4 weeks. The protocol: (§1) Methods: Patients with moderate to severe stable COPD were randomized to receive double-blind, once-daily treatment with aclidinium (25, 50, 100, 200, or 400 μg), placebo, or open-label tiotropium 18 μg for 4 weeks. Spirometric measurements were performed at 22-24 h after the first dose and then at weekly intervals, and from 0.5-6 h post-administration on Day 1 and at Week 4 (Day 29).

The test system is the same in series [2]. Nature of the series: Spirometric measurements (FEV1) in a 4-week randomized once-daily trial in COPD patients. It counts as in vivo, human. The following applies: for Mean change from baseline in trough FEV1 on Day 29 (Mean Δ): COPD patients. As to the method:
as §1

The structures appear in SMILES notation.

Consider `O=C(O[C@H]1C[N+]2(CCCOc3ccccc3)CCC1CC2)C(O)(c1cccs1)c1cccs1.[Br-]` [Aclidinium, 3(R)-(2-hydroxy-2,2-dithien-2-ylacetoxy)-1-(3-phenoxypropyl)-1-azoniabicyclo[2.2.2]octane bromide], for which the “Effect on ECG, laboratory parameters or adverse events” value in series [1] is on record as “no dose-dependent effect”. The Tolerability result in series [1] is recorded as “well tolerated”. Also, the “Mean change from baseline in trough FEV1 on Day 29 (Mean Δ)” value is 39 mL in series [2] (aclidinium 25 μg once daily, double-blind, 4 weeks, inhaled); 36 mL in series [2] (aclidinium 50 μg once daily, double-blind, 4 weeks); 83 mL in series [2] (aclidinium 100 μg once daily, double-blind, 4 weeks); 148* ml in series [2] (aclidinium 200 μg once daily, double-blind, 4 weeks, *p <0.05 vs placebo); 128* ml in series [2] (aclidinium 400 μg once daily, double-blind, 4 weeks, *p <0.05 vs placebo). Besides, the “Effect on trough FEV1 on Day 29” value in series [2] (aclidinium 25-400 μg once daily, 4 weeks) is “dose-dependently increased”. The “Bronchodilatory effect compared with open-label tiotropium 18 μg” value in series [2] (aclidinium 200 and 400 μg) is “comparable bronchodilatory effects”. In addition, the “Bronchodilatory effect during the first 6 h post-dose on Day 29” value in series [2] (all doses, compared with Day 1) is “comparable to that on Day 1”. In addition, the Duration of bronchodilation result in series [2] (once-daily aclidinium) was “sustained bronchodilation over 24 h”. Further, in series [2] (post-dose, aclidinium 100-400 μg), the “Time to peak FEV1” value came to 3 h.
`C[N+]1(C)[C@@H]2C[C@@H](OC(=O)C(O)(c3cccs3)c3cccs3)C[C@H]1[C@@H]1O[C@@H]12` [Tiotropium, reference compound]: the “Mean change from baseline in trough FEV1 on Day 29 (Mean Δ)” value in series [2] (tiotropium 18 μg once daily, open-label, 4 weeks, *p <0.05 vs placebo) is on record as 161* ml.
